# Data as given in patent US5952368A, “5-aroylpyrrol-2-ylmethylarene derivatives” (Syntex (U.S.A.) Inc., priority 1997, dated 1999).
# Experiments:
# air pouch PGE2 formation = test: Inhibition of eicosanoid (PGE2) synthesis in vivo: carrageenan air-pouch model in rats; design: species or system rat; conditions: oral, male rats
# Procedure: In this assay, an air-pouch is created in the rat and the PGE2 levels in the air-pouch exudate are measured by enzyme immunoassay. Briefly, male rats were anesthetized using a 60:40 CO2 :O2 mixture and subsequently injected subcutaneously with 20 ml of sterilized air, under aseptic conditions, in the proximal area of the dorsum. This injection of sterile air causes the creation of a subcutaneous "air pouch". The next day, a further 10 ml of sterile air was injected into the previously formed pouch using the same technique. […] Control rats received vehicle alone. After 30 minutes, 5 ml of a 0.5% solution of carrageenan (Sigma, Lambda Type IV) was injected into the air pouch. The rats were euthanized 3 or 6 h after the compound administration. […] The total exudate volume was recorded, and the samples were analyzed for PGE2 and 6-keto PGF1 by ELISA (Titerzyme®, PerSeptive Diagnostics) and TxB2 by radioimmuno assay (New England Nuclear Research, Catalog No. NEK-037), according to the manufacturer's directions.
# The mean concentrations of PGE2 were calculated for each group. The anti-inflammatory activity of test materials is expressed as the percent inhibition of PGE2 formation in the test group relative to the control group.
# [1] = test system: cognitive decline of Alzheimer's patients; conditions: cited from earlier work
# COX I = molecular target: T1, COX I (Homo sapiens, UniProt P23219); test: Inhibition of COX I in vitro (radiometric assay, 14C arachidonic acid, partially purified enzyme); type: biochemical; conditions: partially purified COX I, 20 micromolar arachidonic acid, 10 min preincubation, room temperature; read-out: COX I IC50
# T1 construct: made in house; baculovirus-infected insect cells by own knowledge of the cited Barnett et al. 1994
# T1 sequence (P23219 24-599): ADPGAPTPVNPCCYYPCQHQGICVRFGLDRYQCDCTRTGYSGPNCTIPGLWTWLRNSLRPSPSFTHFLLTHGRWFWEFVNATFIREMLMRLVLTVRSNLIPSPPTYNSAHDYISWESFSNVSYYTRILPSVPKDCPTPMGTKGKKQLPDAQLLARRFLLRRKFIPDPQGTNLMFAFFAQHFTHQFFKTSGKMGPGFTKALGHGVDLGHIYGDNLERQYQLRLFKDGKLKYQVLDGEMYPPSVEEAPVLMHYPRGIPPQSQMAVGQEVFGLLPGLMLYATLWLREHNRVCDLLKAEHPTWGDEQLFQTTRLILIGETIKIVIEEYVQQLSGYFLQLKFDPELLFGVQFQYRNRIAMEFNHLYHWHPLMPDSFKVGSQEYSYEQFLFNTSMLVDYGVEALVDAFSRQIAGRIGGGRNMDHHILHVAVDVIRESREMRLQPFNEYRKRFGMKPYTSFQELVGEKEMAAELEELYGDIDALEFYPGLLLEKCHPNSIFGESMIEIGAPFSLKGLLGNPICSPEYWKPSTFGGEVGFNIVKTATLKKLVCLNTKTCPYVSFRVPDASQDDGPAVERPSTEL
# Procedure: (§1) The COX I and COX II inhibitory activity of compounds of this invention in vitro was determined using partially purified COX I and COX II enzymes, prepared as described in J. Barnett et al., Biochim. Biophys. Acta, 1209:130--139 (1994).
# (§2) COX I and COX II samples were diluted with Tris-HCl buffer (50 mM Tris-HCl pH 7.9) containing 2 mM EDTA and 10% glycerol and reconstituted by incubating first with 2 mM phenol for 5 minutes and then with 1 micromolar hematin for an additional 5 minutes. 125 μl of the reconstituted COX I or COX II enzyme were preincubated for 10 minutes at room temperature in a shaking water bath with the compounds of the invention dissolved in 2-15 μl of DMSO or the carrier vehicles (control samples). The enzyme reaction was initiated by adding 25 μl of 1-[14C] arachidonic acid (80,000-100,000 cpm/tube; 20 micromolar final concentration) and the reaction was allowed to continue for an additional 45 seconds. The reaction was terminated by adding 100 μl of 2N HCl and 750 μl water. An aliquot (950 μl) of the reaction mixture was loaded onto a 1 ml C18 Sep-Pak column (J. T. Baker, Phillipsburg, N.J.) which had been previously washed with 2-3 ml methanol and equilibrated with 5-6 ml distilled water. Oxygenated products were quantitatively eluted with 3 ml of acetonitrile/water/acetic acid (50:50:0.1, v/v) and the radioactivity in the eluate determined in a scintillation counter.
# [2] = test system: carrageenan-induced paw edema; test: Anti-inflammatory activity: inhibition of carrageenan-induced paw edema in the rat; type: in vivo; conditions: 10 mg/Kg, oral, female rats, 3 h after carrageenan
# Procedure: The anti-inflammatory activity of compounds of this invention was determined by measuring the inhibition of carrageenan-induced paw edema in the rat, using a modification of the method described in Winter C. A. et al. (1962) "Carrageenan-Induced Edema in Hind Paw of the Rat as an Assay for Anti-inflammatory Drugs". Proc. Soc. Exp. Biol. Med. 111: 544-547. This assay has been used as a primary in vivo screen for anti-inflammatoryactivity of most NSAIDs, and is considered predictive of human efficacy. Briefly, test materials were administered orally to female rats in a volume of 1 ml prepared as solutions or suspensions in an aqueous vehicle containing 0.9% NaCl, 0.5% sodium carboxymethyl-cellulose, 0.4% polysorbate 80, 0.9% benzyl alcohol and 97.3% distilled water. Control rats received vehicle alone. After 1 h 0.05 ml of a 0.5% solution of Carrageenan (Type IV Lambda, Sigma Chemical Co.) in 0.9% saline was injected into the subplantar region of the right hind paw. Three hours later the rats were euthanized in a carbon dioxide atmosphere; hind paws were removed by severing at the tatso-crural joint; and the left and right paws were weighed. The increase in weight of the right paw over the left paw was obtained for each animal and the mean increases were calculated for each group. The anti-inflammatory activity of the test materials is expressed as the percent inhibition of the increase in hind paw weight of the test group relative to the vehicle-dosed control group.
# COX II = molecular target: T2, COX II (Homo sapiens, UniProt P35354); test: Inhibition of COX II in vitro (radiometric assay, 14C arachidonic acid, partially purified enzyme); type: biochemical; conditions: partially purified COX II, 20 micromolar arachidonic acid, 10 min preincubation, room temperature; read-out: COX II IC50
# T2 construct: made in house; baculovirus-infected insect cells by own knowledge of the cited Barnett et al. 1994
# T2 sequence (P35354 18-604): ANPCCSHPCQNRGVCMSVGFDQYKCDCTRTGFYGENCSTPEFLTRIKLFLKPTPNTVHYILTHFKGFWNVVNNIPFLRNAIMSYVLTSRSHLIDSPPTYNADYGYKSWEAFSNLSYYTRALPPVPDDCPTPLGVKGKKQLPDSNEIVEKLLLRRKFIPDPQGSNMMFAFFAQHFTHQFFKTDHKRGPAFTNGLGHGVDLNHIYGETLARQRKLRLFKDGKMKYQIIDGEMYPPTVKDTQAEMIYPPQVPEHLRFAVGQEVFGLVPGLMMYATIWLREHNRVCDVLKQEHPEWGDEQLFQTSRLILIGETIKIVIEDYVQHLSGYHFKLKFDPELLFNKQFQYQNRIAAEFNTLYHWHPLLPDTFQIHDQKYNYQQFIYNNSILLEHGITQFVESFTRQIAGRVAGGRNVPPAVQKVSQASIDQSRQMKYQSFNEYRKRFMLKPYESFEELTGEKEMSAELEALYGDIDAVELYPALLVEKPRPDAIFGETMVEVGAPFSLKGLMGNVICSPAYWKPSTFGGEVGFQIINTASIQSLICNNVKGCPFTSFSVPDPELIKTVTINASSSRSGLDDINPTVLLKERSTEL
# Procedure: as §1, §2
# [3] = test system: acetic acid-induced writhing; test: Analgesic activity: Acetic Acid-induced Rat Writhing Assay; type: in vivo; conditions: 10 mg/Kg, oral, male Sprague Dawley rats
# Source text: The analgesic activity of compounds of this invention may be determined by the Acetic Acid-induced Rat Writhing Assay, using a modification of the method described in Berkenkopf, J. W. and Weichman, B. M. "Production of Prostacyclin in Mice following Intraperitoneal Injection of Acetic Acid, Phenylbenzoquinone and Zymosan: Its Role in the Writhing Response" Prostaglandins: 36: 693-70 (1988). This assay is one of several acute assays which have been used to assess the analgesic activity of NSAIDs, and is considered predictive of human efficacy. The test materials were administered orally to male Sprague Dawley rats in a volume of 1 ml/100 g body weight as solutions or suspensions in an aqueous vehicle containing 0.9% NaCl 0.5% sodium carboxymethyl-cellulose, 0.4% polysorbate 80, 0.9% benzyl alcohol and 97.3% water. Control rats received vehicle alone. One hour after compound administration, 0.3 ml/100 g body weight of 0.75% solution of acetic acid was injected intraperitoneally. The acetic acid injection induces a series of characteristic writhing responses, which were counted over the period between 15 and 30 minutes after the injection. The analgesic activity of test materials is expressed as the percentage inhibition of writhing in the test group relative to the control group.
smiles,measurement,setting,value
"COc1ccc2c(c1)c(CC(=O)O)c(C)n2C(=O)c1ccc(Cl)cc1 [Indomethacin, indomethacin, reference compound]",% Inhibition of air pouch PGE2 formation,"air pouch PGE2 formation; 2-5 mg/Kg, time not given",> 70%
same,effect on cognitive decline of Alzheimer's patients (in words),[1],inhibit the cognitive decline of Alzheimer's patients
"Cc1cc(Cc2ccc(NS(C)(=O)=O)cc2C#N)n(C)c1C(=O)c1ccc(Cl)cc1 [compound 19, N-{3-Cyano-4-[5-(4-chlorobenzoyl)-1,4-dimethyl-1H-pyrrol-2-ylmethyl]phenyl}-methanesulfonamide]",% Inhibition of air pouch PGE2 formation,"air pouch PGE2 formation; 10 mg/Kg, 3 hr",74%
same,IC50,COX I,760 nM
same,% Inhibition (of the increase in hind paw weight),[2],36%
same,IC50,COX II,80 nM
"Cc1ccc(C(=O)c2ccc(Cc3ccc(NS(=O)(=O)CCO)cc3F)n2C)cc1 [compound 36, N-{3-Fluoro-4-[5-(4-methylbenzoyl)-1-methyl-1H-pyrrol-2-ylmethyl]phenyl}-2-(hydroxy)ethanesulfonamide]",% Inhibition of writhing responses,[3],16%
same,% Inhibition of air pouch PGE2 formation,"air pouch PGE2 formation; 10 mg/Kg, 3 hr",96%
same,IC50,COX I,10000 nM
same,% Inhibition (of the increase in hind paw weight),[2],31%
same,IC50,COX II,50 nM
"Cc1ccc(C(=O)c2ccc(Cc3ccc(NS(=O)(=O)CCO)cc3F)n2C)c(C)c1 [compound 48, N-{3-Fluoro-4-[5-(2,4-dimethylbenzoyl)-1-methyl-1H-pyrrol-2-ylmethyl]phenyl}-2-(hydroxy)ethanesulfonamide]",% Inhibition of air pouch PGE2 formation,"air pouch PGE2 formation; 30 mg/Kg, 3 hr",64%
same,IC50,COX I,61000 nM
same,% Inhibition (of the increase in hind paw weight),[2],35%
same,IC50,COX II,80 nM
"COc1ccc(C(=O)c2c(C)cc(Cc3ccc(NS(=O)(=O)CCO)cc3F)n2C)cc1 [compound 98, N-{3-Fluoro-4-[5-(4-methoxybenzoyl)-1,4-dimethyl-1H-pyrrol-2-ylmethyl]phenyl}-2-(hydroxy)ethanesulfonamide]",% Inhibition of writhing responses,[3],71%
same,% Inhibition of air pouch PGE2 formation,"air pouch PGE2 formation; 10 mg/Kg, 3 hr",98%
same,IC50,COX I,< 100 nM
same,% Inhibition (of the increase in hind paw weight),[2],42%
same,IC50,COX II,230 nM
"Cc1cc(Cc2ccc(NS(=O)(=O)N(C)C)cc2)n(C)c1C(=O)c1ccc(Cl)cc1 [compound 140, 1-{4-[5-(4-Chlorobenzoyl)-1,4-dimethyl-1H-pyrrol-2-ylmethyl]phenyl}-3,3-di-methylsulfamide]",% Inhibition of writhing responses,[3],4%
same,% Inhibition of air pouch PGE2 formation,"air pouch PGE2 formation; 30 mg/Kg, 6 hr",83%
same,IC50,COX I,5400 nM
same,% Inhibition (of the increase in hind paw weight),[2],27%
same,IC50,COX II,120 nM
"Cc1cc(Cc2ccc(NS(N)(=O)=O)cc2F)n(C)c1C(=O)c1ccc(Cl)cc1 [compound 146, 1-{3-Fluoro-4-[5-(4-chlorobenzoyl)-1,4-dimethyl-1H-pyrrol-2-ylmethyl]phenyl}sulfamide]",% Inhibition of air pouch PGE2 formation,"air pouch PGE2 formation; 10 mg/Kg, 3 hr",93%
same,IC50,COX I,2900 nM
same,% Inhibition (of the increase in hind paw weight),[2],40%
same,IC50,COX II,60 nM
"Cc1ccc(C(=O)c2ccc(Cc3ccc(NS(N)(=O)=O)cc3F)n2C)c(C)c1 [compound 165, 1-{3-Fluoro-4-[5-(2,4-dimethylbenzoyl)-1-methyl-1H-pyrrol-2-ylmethyl]phenyl}sulfamide]",% Inhibition of air pouch PGE2 formation,"air pouch PGE2 formation; 10 mg/Kg, 3 hr",52%
same,IC50,COX I,16800 nM
same,% Inhibition (of the increase in hind paw weight),[2],17%
same,IC50,COX II,95 nM
"Cc1cc(Cc2ccc(NS(C)(=O)=O)cn2)n(C)c1C(=O)c1ccc(Cl)cc1 [compound 263, N-{2-[5-(4-Chlorobenzoyl)-1,4-dimethyl-1H-pyrrol-2-ylmethyl]pyridin-5-yl}-methanesulfonamide]",% Inhibition of writhing responses,[3],31%
same,% Inhibition of air pouch PGE2 formation,"air pouch PGE2 formation; 30 mg/Kg, 6 hr",80%
same,IC50,COX I,49000 nM
same,% Inhibition (of the increase in hind paw weight),[2],40%
same,IC50,COX II,450 nM
"Cc1ccc(C(=O)c2ccc(Cc3ccc(NS(C)(=O)=O)cn3)n2C)cc1 [compound 271, N-{2-[5-(4-Methylbenzoyl)-1-methyl-1H-pyrrol-2-ylmethyl]pyridin-5-yl}methane-sulfonamide]",% Inhibition of air pouch PGE2 formation,"air pouch PGE2 formation; 10 mg/Kg, 3 hr",56%
same,IC50,COX I,89000 nM
same,IC50,COX II,430 nM
"COc1ccc(C(=O)c2c(C)cc(Cc3ncc(NS(C)(=O)=O)cc3Cl)n2C)cc1 [compound 284, N-{3-Chloro-2-[5-(4-methoxybenzoyl)-1,4-dimethyl-1H-pyrrol-2-ylmethyl]pyridin-5-yl}-methanesulfonamide]",% Inhibition of air pouch PGE2 formation,"air pouch PGE2 formation; 10 mg/Kg, 3 hr",65%
same,IC50,COX I,22000 nM
same,IC50,COX II,500 nM
"COc1ccc(C(=O)c2ccc(Cc3ccc(NS(C)(=O)=O)cn3)n2C)cc1 [compound 288, N-{2-[5-(4-Methoxybenzoyl)-1-methyl-1H-pyrrol-2-ylmethyl]pyridin-5-yl}-methanesulfonamide]",% Inhibition of air pouch PGE2 formation,"air pouch PGE2 formation; 10 mg/Kg, 3 hr",53%
same,IC50,COX I,235000 nM
same,% Inhibition (of the increase in hind paw weight),[2],20%
same,IC50,COX II,550 nM
"CSc1ccc(C(=O)c2c(C)cc(Cc3ccc(N)cn3)n2C)cc1 [compound 334, {2-[5-(4-Methylthiobenzoyl)-1,4-dimethyl-1H-pyrrol-2-ylmethyl]pyridin-5-yl}amine]",% Inhibition of air pouch PGE2 formation,"air pouch PGE2 formation; 10 mg/Kg, 3 hr",44%
same,IC50,COX I,18300 nM
same,IC50,COX II,640 nM
"Cc1cc(Cc2ccc(O)cc2)n(C)c1C(=O)c1ccc(Cl)cc1 [compound 343, 4-{5-(4-Chlorobenzoyl)-1,4-dimethyl-1H-pyrrol-2-ylmethyl}phenol]",IC50,COX I,6600 nM
same,% Inhibition (of the increase in hind paw weight),[2],35%
same,IC50,COX II,540 nM
